Test results from patent US11209732B2, “Near infrared absorbing composition, film, infrared cut filter, solid image pickup element, infrared absorber, and compound” (FUJIFILM Corporation, priority 2015, dated 2021).

Key:
[1] = Solubility of compound in solvents at 25° C.; type: physicochemical; settings: for Solubility PGMEA: propylene glycol monomethyl ether acetate; for Solubility Cyclohexanone / Solubility in each of the solvents (in words): cyclohexanone; for Solubility in each of the solvents (in words): PGMEA; for Solubility Toluene / Solubility in each of the solvents (in words): toluene
Protocol: The solubility of each of the compounds in each of solvents (cyclohexanone, propylene glycol monomethyl ether acetate (PGMEA), toluene) at 25° C. was evaluated based on the following criteria.
A: the solubility of the compound in the solvent at 25° C. was 2 mass % or higher

[2] = Absorption maximum of compound in chloroform solution; type: physicochemical; settings: absorbance at maximum 0.7 to 1.2
Protocol: The absorption maximum of the squarylium compound (1) is a value measured using a chloroform solution of the squarylium compound that is adjusted such that an absorbance at the absorption maximum is in a range of 0.7 to 1.2.
Each of the obtained compounds was dissolved in chloroform to prepare a solution having a concentration of 1 g/L. Next, the solution in which each of the compounds was dissolved was appropriately diluted such that an absorbance at an absorption maximum in an absorption spectrum thereof was in a range of 0.7 to 1.2, and the absorption maximum (λmax) thereof was measured using UV-1800 (manufactured by Shimadzu Corporation).

| Absorption Maximum (nm) [2] [nm] | Solubility in each of the solvents (in words) [1] | SMILES | Solubility Cyclohexanone [1] | Solubility PGMEA [1] | Solubility Toluene [1] |
| --- | --- | --- | --- | --- | --- |
| 653 |  | CCCCCCCCCCCCN(c1ccccc1)c1ccc(C2=C([O-])/C(=C3C=C/C(=[N+](\CCCCCCCCCCCC)CCNS(=O)(=O)CCCC)C=C/3O)C2=O)s1 [Compound R-2, reference compound] | A (the solubility of the compound in the solvent at 25 °C was 2 mass % or higher) | A (the solubility of the compound in the solvent at 25 °C was 2 mass % or higher) | A (the solubility of the compound in the solvent at 25 °C was 2 mass % or higher) |
| 770 |  | CCCCCCCCc1ccc(N(c2ccc(CCCCCCCC)cc2)c2cc3sc(C4=C([O-])/C(=c5\cc6c(s5)=CC(=[N+](c5ccc(CCCCCCCC)cc5)c5ccc(CCCCCCCC)cc5)S6)C4=O)cc3s2)cc1 [Compound 2] | A (the solubility of the compound in the solvent at 25 °C was 2 mass % or higher) | B (the solubility of the compound in the solvent at 25 °C was 1 mass % or higher and lower than 2 mass %) | B (the solubility of the compound in the solvent at 25 °C was 1 mass % or higher and lower than 2 mass %) |
| 704 | insufficient | CCCCc1ccc(N(c2ccc(CCCC)cc2)c2ccc(C3=C([O-])/C(=C4\C=CC(=[N+](c5ccc(CCCC)cc5)c5ccc(CCCC)cc5)S4)C3=O)s2)cc1 [Compound R-3, reference compound] | B (the solubility of the compound in the solvent at 25 °C was 1 mass % or higher and lower than 2 mass %) | D (the solubility of the compound in the solvent at 25 °C was lower than 0.5 mass %) | B (the solubility of the compound in the solvent at 25 °C was 1 mass % or higher and lower than 2 mass %) |
| 687 | insufficient | O=C1C(c2sc(N(c3ccccc3)c3ccccc3)nc2-c2ccccc2)=C([O-])/C1=C1/SC(=[N+](c2ccccc2)c2ccccc2)N=C1c1ccccc1 [Compound R-1, reference compound] | C (the solubility of the compound in the solvent at 25 °C was 0.5 mass % or higher and lower than 1 mass %) | D (the solubility of the compound in the solvent at 25 °C was lower than 0.5 mass %) | C (the solubility of the compound in the solvent at 25 °C was 0.5 mass % or higher and lower than 1 mass %) |
| 719 |  | CCCCCCC1=CC(=[N+](c2ccc3ccccc3c2)c2ccc3ccccc3c2)S/C1=C1\C(=O)C(c2sc(N(c3ccc4ccccc4c3)c3ccc4ccccc4c3)cc2CCCCCC)=C1[O-] [Compound 1] | A (the solubility of the compound in the solvent at 25 °C was 2 mass % or higher) | B (the solubility of the compound in the solvent at 25 °C was 1 mass % or higher and lower than 2 mass %) | A (the solubility of the compound in the solvent at 25 °C was 2 mass % or higher) |
| 860 |  | CCCCCCCCc1ccc(N(c2ccc(CCCCCCCC)cc2)c2ccc(/C=C/c3ccc(C4=C([O-])/C(=c5\cc/c(=C\C=C6/C=CC(=[N+](c7ccc(CCCCCCCC)cc7)c7ccc(CCCCCCCC)cc7)S6)s5)C4=O)s3)s2)cc1 [Compound 4] | A (the solubility of the compound in the solvent at 25 °C was 2 mass % or higher) | B (the solubility of the compound in the solvent at 25 °C was 1 mass % or higher and lower than 2 mass %) | B (the solubility of the compound in the solvent at 25 °C was 1 mass % or higher and lower than 2 mass %) |
|  |  | CCCCCCc1cc(-c2ccc(N(c3ccc(C)cc3)c3ccc(C)cc3)s2)sc1C1=C([O-])/C(=c2/s/c(=C3\C=CC(=[N+](c4ccc(C)cc4)c4ccc(C)cc4)S3)cc2CCCCCC)C1=O [Compound 5] | A (the solubility of the compound in the solvent at 25 °C was 2 mass % or higher) | B (the solubility of the compound in the solvent at 25 °C was 1 mass % or higher and lower than 2 mass %) | A (the solubility of the compound in the solvent at 25 °C was 2 mass % or higher) |
